Source: patent US12127557B2
Read-outs that look alike come from different tables or passages of the source.

Assays:
Fusarium graminearum = format: cell-based; details: no enzyme, 5 days
Pythium ultimum = format: cell-based; details: no enzyme, 2 days

## mancozeb
Fusarium graminearum; mancozeb 0.5 mg/l
  Reduction in F. graminearum growth (−) enzyme: 6% cd
Fusarium graminearum; mancozeb 2 mg/l
  Reduction in F. graminearum growth (−) enzyme: 1% d
Fusarium graminearum; mancozeb 5 mg/l
  Reduction in F. graminearum growth (−) enzyme: 17% cd
Fusarium graminearum; mancozeb 10 mg/l
  Reduction in F. graminearum growth (−) enzyme: 26% bcd
Pythium ultimum; mancozeb 0.5 mg/l
  Reduction in P. ultimum growth (−) enzyme: 2% f
Pythium ultimum; mancozeb 2 mg/l
  Reduction in P. ultimum growth (−) enzyme: 10% e
Pythium ultimum; mancozeb 5 mg/l
  Reduction in P. ultimum growth (−) enzyme: 16% e
Pythium ultimum; mancozeb 10 mg/l
  Reduction in P. ultimum growth (−) enzyme: 23% d
